Consider 19 compounds from patent publication US10173991B2, “Sulfone amide linked benzothiazole inhibitors of endothelial lipase” (BRISTOL-MYERS SQUIBB COMPANY, priority 2014, dated 2019).

pIC50: −log10 of the molar value.

The target of this assay is Endothelial lipase (EL) (Homo sapiens (Human), UniProt Q9Y5X9). Put plainly: Endothelial lipase (EL) enzymatic assay with fluorescent substrate A10070 in DMPG vesicles. The assay is classed as biochemical. The gist of the method:
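Substrate A10070 sits in sonicated DMPG vesicles at 0.11 mole fraction. Lipase and compound preincubated 30 min, 37° C, in HEPES pH 8.0 buffer with CaCl2.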

Endothelial lipase (EL), sequence (Q9Y5X9 21-500): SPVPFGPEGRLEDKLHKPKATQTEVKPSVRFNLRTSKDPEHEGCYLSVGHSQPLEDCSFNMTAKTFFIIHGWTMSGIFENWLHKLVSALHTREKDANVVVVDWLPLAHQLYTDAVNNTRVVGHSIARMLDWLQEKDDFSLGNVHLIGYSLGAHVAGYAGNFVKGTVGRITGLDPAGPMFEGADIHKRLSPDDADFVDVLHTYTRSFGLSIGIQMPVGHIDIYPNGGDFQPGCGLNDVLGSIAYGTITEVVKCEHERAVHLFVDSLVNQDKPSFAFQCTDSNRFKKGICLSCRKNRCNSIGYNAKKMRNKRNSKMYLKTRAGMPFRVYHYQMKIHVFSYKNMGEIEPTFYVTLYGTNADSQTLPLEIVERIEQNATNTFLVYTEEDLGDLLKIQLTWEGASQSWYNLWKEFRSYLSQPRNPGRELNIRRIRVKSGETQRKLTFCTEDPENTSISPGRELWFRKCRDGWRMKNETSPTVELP

Turning to `COCCS(=O)(=O)C(C(=O)NCC(=O)NC1CC1)c1nc2cc(-c3ccc(F)cc3)ccc2s1` (stereo not shown) [Example 135, N-[(cyclopropyl-carbamoyl)methyl]-2-[5-(4-fluorophenyl)-1,3-benzothiazol-2-yl]-2-(2-methoxyethane-sulfonyl) acetamide], the pIC50 (usually the IC50 on a negative log10 scale, so that one unit is a factor of ten) is 7.31. For the compound `O=C(CNC(=O)C(c1nc2cc(F)c(-c3ccn(Cc4ccccc4)c(=O)c3)cc2s1)S(=O)(=O)CCC(F)(F)F)NC1CC1` (stereo not shown) [Example 136, 2-[6-(1-benzyl-2-oxo-1,2-dihydropyridin-4-yl)-5-fluoro-1,3-benzothiazol-2-yl]-N-[(cyclopropyl-carbamoyl)methyl]-2-(3,3,3-trifluoropropane-sulfonyl) acetamide], the pIC50 is 8.22. In the case of `O=C(CNC(=O)C(c1nc2cc(F)c(-c3cccc(-n4cccn4)c3)cc2s1)S(=O)(=O)CCC(F)(F)F)NC1CC1` (stereo not shown) [Example 137, N-[(cyclopropyl-carbamoyl)methyl]-2-{5-fluoro-6-[3-(1H-pyrazol-1-yl)phenyl]-1,3-benzothiazol-2-yl}-2-(3,3,3-trifluoropropane-sulfonyl) acetamide], the pIC50 was 9.00. This pIC50 lies 0.78 log units higher than the previous one. `O=C(CNC(=O)C(c1nc2cc(F)c(-c3ccc(-n4cccn4)cc3)cc2s1)S(=O)(=O)CCC(F)(F)F)NC1CC1` (stereo not shown) [Example 138, N-[(cyclopropyl-carbamoyl)methyl]-2-{5-fluoro-6-[4-(1H-pyrazol-1-yl)phenyl]-1,3-benzothiazol-2-yl}-2-(3,3,3-trifluoropropane-sulfonyl) acetamide] had a pIC50 of 8.22. For `COCCS(=O)(=O)C(C(=O)NCC(=O)NC1CC1)c1nc2cc(F)c(-c3ccc(-n4cccn4)cc3)cc2s1` (stereo not shown) [Example 139, N-[(cyclopropyl-carbamoyl)methyl]-2-{5-fluoro-6-[4-(1H-pyrazol-1-yl)phenyl]-1,3-benzothiazol-2-yl}-2-(2-methoxyethane-sulfonyl) acetamide], the pIC50 was 8.70. Against the preceding compound, the pIC50 is 0.48 log units higher. In the case of `COCCS(=O)(=O)C(C(=O)NCC(=O)NC1CC1)c1nc2cc(F)c(-c3cnc(OC)c(N)c3)cc2s1` (stereo not shown) [Example 140] it was 7.92; in that of `COCCS(=O)(=O)C(C(=O)NCC(=O)NC1CC1)c1nc2cc(F)c(-c3cccc(-n4cccn4)c3)cc2s1` (stereo not shown) [Example 141, N-[(cyclopropyl-carbamoyl)methyl]-2-{5-fluoro-6-[3-(1H-pyrazol-1-yl)phenyl]-1,3-benzothiazol-2-yl}-2-(2-methoxyethane-sulfonyl) acetamide], 8.70; in that of `O=C(CNC(=O)C(c1nc2cc(F)c(-c3ccc(-n4cnnn4)cc3)cc2s1)S(=O)(=O)CCC(F)(F)F)NC1CC1` (stereo not shown) [Example 142, N-[(cyclopropyl-carbamoyl)methyl]-2-{5-fluoro-6-[4-(1H-1,2,3,4-tetrazol-1-yl)phenyl]-1,3-benzothiazol-2-yl}-2-(3,3,3-trifluoropropane-sulfonyl) acetamide], 8.30.

Regarding `O=C(CNC(=O)C(c1nc2cc(F)c(-c3cccc(-c4cc[nH]n4)c3)cc2s1)S(=O)(=O)CCC(F)(F)F)NC1CC1` (stereo not shown) [Example 143, N-[(cyclopropyl-carbamoyl)methyl]-2-{5-fluoro-6-[3-(1H-pyrazol-3-yl)phenyl]-1,3-benzothiazol-2-yl}-2-(3,3,3-trifluoropropane-sulfonyl) acetamide], the pIC50 is 8.52.

Take `O=C(CNC(=O)C(c1nc2cc(F)c(-c3ccc(-c4ccn[nH]4)cc3)cc2s1)S(=O)(=O)CCC(F)(F)F)NC1CC1` (stereo not shown) [Example 144, N-[(cyclopropyl-carbamoyl)methyl]-2-{5-fluoro-6-[4-(1H-pyrazol-5-yl)phenyl]-1,3-benzothiazol-2-yl}-2-(3,3,3-trifluoropropane-sulfonyl) acetamide]: the pIC50 was 9.00. The result for `COCCS(=O)(=O)C(C(=O)NCC(=O)NC1CC1)c1nc2cc(F)c(-c3ccc(-c4ccno4)cc3)cc2s1` (stereo not shown) [Example 145, N-[(cyclopropyl-carbamoyl)methyl]-2-{5-fluoro-6-[4-(1,2-oxazol-5-yl)phenyl]-1,3-benzothiazol-2-yl}-2-(2-methoxyethane-sulfonyl) acetamide] reads 8.52; that for `COCCS(=O)(=O)C(C(=O)NCC(=O)NC1CC1)c1nc2cc(F)c(-c3ccc(-c4nn[nH]n4)cc3)cc2s1` (stereo not shown) [Example 146, N-[(cyclopropyl-carbamoyl)methyl]-2-{5-fluoro-6-[4-(2H-1,2,3,4-tetrazol-5-yl)phenyl]-1,3-benzothiazol-2-yl}-2-(2-methoxyethane-sulfonyl)acetamide], 8.22; that for `COCCS(=O)(=O)C(C(=O)NCC(=O)NC1CC1)c1nc2cc(F)c(-c3ccc(-c4nnc(C)o4)cc3)cc2s1` (stereo not shown) [Example 147, N-[(cyclopropyl-carbamoyl)methyl]-2-{5-fluoro-6-[4-(5-methyl-1,3,4-oxadiazol-2-yl)phenyl]-1,3-benzothiazol-2-yl}-2-(2-methoxyethane-sulfonyl) acetamide], 8.40. In the case of `COCCS(=O)(=O)C(C(=O)NCC(=O)NC1CC1)c1nc2cc(C)c(-c3ccc4c(cnn4C)c3)cc2s1` (stereo not shown) [Example 148, N-[(cyclopropyl-carbamoyl)methyl]-2-(2-methoxyethane-sulfonyl)-2-[5-methyl-6-(1-methyl-1H-indazol-5-yl)-1,3-benzothiazol-2-yl] acetamide] it was 8.70; in that of `COCCS(=O)(=O)C(C(=O)NCC(=O)NC1CC1)c1nc2cc(F)c(-c3ccc4[nH]c(=O)ccc4c3)cc2s1` (stereo not shown) [Example 149, N-[(cyclopropyl-carbamoyl)methyl]-2-[5-fluoro-6-(2-oxo-1,2-dihydroquinolin-6-yl)-1,3-benzothiazol-2-yl]-2-(2-methoxyethane-sulfonyl) acetamide], 8.70; in that of `COCCS(=O)(=O)C(C(=O)NCC(=O)NC1CC1)c1nc2cc(F)c(-c3ccc4c(c3)CNC4=O)cc2s1` (stereo not shown) [Example 150, N-[(cyclopropyl-carbamoyl)methyl]-2-[5-fluoro-6-(1-oxo-2,3-dihydro-1H-isoindol-5-yl)-1,3-benzothiazol-2-yl]-2-(2-methoxyethane-sulfonyl) acetamide], 8.70. The result for `COCCS(=O)(=O)C(C(=O)NCC(=O)NC1CC1)c1nc2cc(C)c(-c3ccc4[nH]c(=O)ccc4c3)cc2s1` (stereo not shown) [Example 151, N-[(cyclopropyl-carbamoyl)methyl]-2-(2-methoxyethane-sulfonyl)-2-[5-methyl-6-(2-oxo-1,2-dihydroquinolin-6-yl)-1,3-benzothiazol-2-yl]acetamide] reads 8.70. For the compound `COCCS(=O)(=O)C(C(=O)NCC(=O)NC1CC1)c1nc2cc(F)c(-c3ccc4c(cnn4C)c3)cc2s1` (stereo not shown) [Example 152, N-[(cyclopropyl-carbamoyl)methyl]-2-[5-fluoro-6-(1-methyl-1H-indazol-5-yl)-1,3-methoxyethane-sulfonyl) acetamide], the pIC50 was 8.52. In the case of `COCCS(=O)(=O)C(C(=O)NCC(=O)NC1CC1)c1nc2cc(F)c(-c3ccc4c(=O)n(C)ccc4c3)cc2s1` (stereo not shown) [Example 153, N-[(cyclopropyl-carbamoyl)methyl]-2-[5-fluoro-6-(2-methyl-1-oxo-1,2-dihydro-isoquinolin-6-yl)-1,3-benzothiazol-2-yl]-2-(2-methoxyethane-sulfonyl) acetamide] it was 8.52.
